Measurements published in patent publication US20250073232A1, “COMBINATIONS OF LSD1 INHIBITORS FOR TREATING MYELOID CANCERS” (ORYZON GENOMICS, S.A., priority 2021, published 2025).
Values belong to the molecule of their own block, whether it stands above or below them.

Assays:
R/R AML = R/R AML patients treated with gilteritinib; cited from earlier work
TF-1a = experiment: Single agent viability assay (96 hours, alamarBlue); type: cell-based; details: for EC50 range in words / reduction of viability (compared to vehicle controls): 96 hours; for EC50: TF-1a
Experimental: (§1) Mycoplasma-free AML cell lines were maintained in RPMI 10% FBS medium at 37° C. in a humidified incubator with controlled 5% CO2 atmosphere. Cell freezing and thawing was performed following recommendation from ATCC. Genetic profiling of the cell lines used is available in Table 1.
(§2) Cells were seeded in 96-well plates at the optimal density to guarantee linear growth throughout the assay (8000 cells/well for MV(4; 11), 4000 cells/well for MOLM-13 and OCI-AML3, 2000 cells/well for TF1a) in 50 μL of medium. Each experimental condition was tested in technical triplicates, including medium-only and vehicle-treated controls for background correction and normalization, respectively. After seeding, 50 μL of medium containing 9 serial dilutions (1:3) of 2×-concentrated compound were added to the cells to obtain 100 μL of cells with 1×-concentrated compound at each dilution. Cells were then incubated for 96 hours at 37° C. in a controlled 5% CO2 atmosphere, prior to evaluation of cell viability using alamarBlue™ cell viability reagent (ThermoFisher Scientific, Waltham, MA/USA). AlamarBlue™ is a cell viability indicator that uses the natural reducing power of living cells to convert resazurin to the fluorescent molecule, resorufin. Briefly, alamarBlue™ stock solution was diluted 1:20 in the culture medium and after 3 hours incubation fluorescence was measured using a TECAN Infinity 2000 plate reader (Tecan Group Ltd., Männedorf, CH; 540-570 nm excitation wavelength, 580-610 nm emission wavelength). For each condition, the average fluorescence was calculated from the 3 technical replicates; background correction was calculated from the fluorescence of medium-only controls. Data were analyzed using the GraphPad PRISM® version 9.0.1 (GraphPad Software, Inc., La Jolla, CA/USA) to calculate the best-fitting curves and the EC50 values.

MOLM-13 = experiment: as above; type: cell-based; details: for EC50: Homo sapiens, 96 hours incubation
Experimental: as §1, §2

OCI-AML3 = experiment: as above; type: cell-based; details: for EC50: Homo sapiens; for EC50 range in words / reduction of viability (compared to vehicle controls): single agent, 96 hours
Experimental: as §1, §2

MV(4; 11) = experiment: as above; type: cell-based; details: for EC50: Homo sapiens, MV4-11, 96 hours incubation
Experimental: as §1, §2

[1] = single agent, 96 hours incubation
[2] = OCI-AML-3, single agent, 96 hours incubation

Compound: CCc1nc(C(N)=O)c(Nc2ccc(N3CCC(N4CCN(C)CC4)CC3)c(OC)c2)nc1NC1CCOCC1 [gilteritinib, 6-ethyl-3-[[3-methoxy-4-[4-(4-methylpiperazinyl)piperidin-1-yl]phenyl]amino]-5-[(tetrahydro-2H-pyran-4-yl)amino]pyrazine-2-carboxamide]
R/R AML patients showing complete remission (R/R AML): 21%
relapse-free survival (R/R AML): around 4 months
EC50 range in words (TF-1a; TF1a, single agent): micromolar range
reduction of viability (compared to vehicle controls) (TF-1a; TF1a, single agent): > 70%
EC50 (TF-1a; [1]): 1020 nM
EC50 range in words (MOLM-13; 96 hours): nanomolar range
reduction of viability (compared to vehicle controls) (MOLM-13; 96 hours): ~100%
EC50 (MOLM-13): 2.91 nM
EC50 (OCI-AML3; [2]): 1160 nM
EC50 range in words (OCI-AML3): micromolar range
reduction of viability (compared to vehicle controls) (OCI-AML3): > 70%
EC50 range in words (MV(4; 11); 96 hours): nanomolar range
reduction of viability (compared to vehicle controls) (MV(4; 11); 96 hours): ~100%
EC50 (MV(4; 11)): 0.77 nM

Compound: CC1(C)CCC(CN2CCN(c3ccc(C(=O)NS(=O)(=O)c4ccc(NCC5CCOCC5)c([N+](=O)[O-])c4)c(Oc4cnc5[nH]ccc5c4)c3)CC2)=C(c2ccc(Cl)cc2)C1 [venetoclax]
EC50 (TF-1a; TF1a, tested following the method described above): > 10000 nM
EC50 (OCI-AML3; OCI-AML-3, tested following the method described above): > 10000 nM

Compound: CN1CCN(C(=O)[C@H](CCCN[C@@H]2C[C@H]2c2ccc(F)cc2)NC(=O)c2ccc(-n3ccnn3)cc2)CC1 [bomedemstat, N-[(2S)-5-{[(1R,2S)-2-(4-fluorophenyl)cyclopropyl]amino}-1-(4-methylpiperazin-1-yl)-1-oxopentan-2-yl]-4-(1H-1,2,3-triazol-1-yl) benzamide]
EC50 range in words (MOLM-13; 96 hours): nanomolar range
EC50 (MOLM-13): 6.08 nM
EC50 range in words (MV(4; 11); 96 hours): nanomolar range
EC50 (MV(4; 11)): 3.73 nM

More lines, main results first:

EC50 range in words (MOLM-13; 96 hours): sub-nanomolar range
EC50 (MOLM-13): 0.39 nM
EC50 (OCI-AML3; [2]): 0.38 nM
EC50 range in words (OCI-AML3): sub-nanomolar range
Compound: N[C@H]1CC[C@H](N[C@@H]2C[C@H]2c2ccccc2)CC1 [iadademstat, (trans)-N1-((1R,2S)-2-phenylcyclopropyl)cyclohexane-1,4-diamine]
EC50 range in words (TF-1a; TF1a, single agent): sub-nanomolar range
reduction of viability (compared to vehicle controls) (TF-1a; TF1a, single agent): greater than 20%
EC50 (TF-1a; [1]): 0.35 nM
reduction of viability (compared to vehicle controls) (OCI-AML3): greater than 20%
EC50 range in words (MV(4; 11); 96 hours): sub-nanomolar range
EC50 (MV(4; 11)): 0.43 nM

EC50 range in words (MOLM-13; 96 hours): nanomolar range
EC50 (MOLM-13): 1.49 nM
Compound: COc1ccc(-c2c(-c3ccc(C#N)c(F)c3)nc(N3CCC(N)CC3)n(C)c2=O)cc1F [CC-90011, 4-[2-(4-aminopiperidin-1-yl)-5-(3-fluoro-4-methoxyphenyl)-1-methyl-6-oxo-1,6-dihydropyrimidin-4-yl]-2-fluorobenzonitrile]
EC50 range in words (MV(4; 11); 96 hours): nanomolar range
EC50 (MV(4; 11)): 2.3 nM
